Measurements from patent US20210059282A1, “Process for Spray Drying Fucosyllactose Solutions and Related Product Compositions” (DUPONT NUTRITION BIOSCIENCES APS, priority 2018, published 2021).

Assay: Solubility in water at room temperature and pressure (general statement)
Format: physicochemical

Solubility in water: soluble in water
Compound: CC1OC(OC2C(OC3C(CO)OC(O)C(O)C3O)OC(CO)C(O)C2O)C(O)C(O)C1O (stereo not shown) [2′-FL, 2′-fucosyllactose]
